Results published in ChEMBL document CHEMBL1139594, “Azinomycin inspired bisepoxides: influence of linker structure on in vitro cytotoxicity and DNA interstrand cross-linking” (2005).

Key:
Type in all cases: functional
[1] = Mean cytotoxicity towards NCI panel of 60 human cancer cell lines; conditions: read-out: LC50 (the source's name)
[2] = Growth inhibitory concentration against NCI panel of 60 human cancer cell lines
[3] = Total growth inhibition of NCI panel of 60 human cancer cell lines

Compound | CC50 [1] [nM] | GI50 [2] [nM] | TGI [3] [nM]
COc1cc(C(=O)O[C@H](C(=O)NCCN(C)CCNC(=O)[C@@H](OC(=O)c2cc(OC)cc3c(C)cccc23)[C@]2(C)CO2)[C@]2(C)CO2)c2cccc(C)c2c1 | 14400 | 28 | 350
COc1cc(C(=O)O[C@H](C(=O)NCCNC(=O)[C@@H](OC(=O)c2cc(OC)cc3c(C)cccc23)[C@]2(C)CO2)[C@]2(C)CO2)c2cccc(C)c2c1 | 62000 | 72 | 2400
COc1cc(C(=O)O[C@H](C(=O)NCCCNC(=O)[C@@H](OC(=O)c2cc(OC)cc3c(C)cccc23)[C@]2(C)CO2)[C@]2(C)CO2)c2cccc(C)c2c1 | 3200 | 31 | 210
COc1cc(C(=O)O[C@H](C(=O)NCCCCNC(=O)[C@@H](OC(=O)c2cc(OC)cc3c(C)cccc23)[C@]2(C)CO2)[C@]2(C)CO2)c2cccc(C)c2c1 | 14800 | 53 | 550
COc1cc(C(=O)O[C@H](C(=O)NCCCCCNC(=O)[C@@H](OC(=O)c2cc(OC)cc3c(C)cccc23)[C@]2(C)CO2)[C@]2(C)CO2)c2cccc(C)c2c1 | 50000 | 178 | 3400
COc1cc(C(=O)O[C@H](C(N)=O)[C@]2(C)CO2)c2cccc(C)c2c1 | 33000 | 214 | 2000
